According to patent US7736630B2, “Products for preventing penetration into the skin” (priority 2002, dated 2010):
Where two headings read alike, the source gives them in different places.

Test: Skin permeation and skin accumulation in Franz diffusion cells
Assay type: in vitro ADME, nude mice (CD1)
Experimental: The permeation of pure OMC and Di(4-methoxycinnamoyl)jojobadiol (two —OH groups esterified) was measured by using dorsal skin of male, 7 weeks old, nude mice (CD1, Weizmann Institute, Israel).
The experiments were carried out for 24 hours at 37° C. in Franz diffusion cells. Samples of 200 μl were taken at 1, 2, 4, 6, 8 and 24 hours. 10 mg of each compound were applied on each skin (area—1.77 cm^2). The receiver compartment contained EtOH:H2O (1:1). At the end of the experiment the skin was cleaned and the skins were extracted with 10 ml EtOH. The amounts of the OMC and derivative Di(4-methoxycinnamoyl)jojobadiol were assayed by HPLC.

Compound	amount accumulated in the skin at the end of experiment (10 mg on 1.77 cm^2 skin, 24 hours, 37° C., skin extracted with 10 ml EtOH, FIG. 7)	penetration/permeation across the skin (in words) (24 hours in vitro permeation, lowest detectable concentration of the derivative by HPLC 0.8 μg/ml, FIG. 6)	penetration/permeation across the skin (in words) (24 hours in vitro permeation, lowest detectable concentration of the derivative by HPLC 0.8 μg/ml, FIG. 6, listed as di(4-methoxy-cinnamoyl)jojobadiol)	skin accumulation, OMC compared with Di(4-methoxycinnamoyl)jojobadiol (end of 24 hours experiment, FIG. 7)	penetration/permeation across the skin (in words)	amount penetrated as % of the dose applied on the skin (male, CD1 nude, mouse, 24 h)	amount which penetrated into the skin at the end of permeation experiment (male, CD1 nude, mouse, 24 h)
Di(4-methoxycinnamoyl)jojobadiol	900 ± 359 µg	no penetration	does not	about third of the amount of the OMC	–	–	–
CCCCC(CC)COC(=O)C=Cc1ccc(OC)cc1 (stereo not shown) [OMC, octylmethoxycinnamate, reference compound]	–	–	–	–	permeates to the skin	8.76%	876 ± 235 µg
